Experimental data from the supplement of paper PMC11061612.

What was measured:
Assay in all cases: Bliss excess, mean over the matrix (fraction); higher = more synergy
[1] = system: K5 (Thyroid Gland Carcinoma)
Procedure, shortened: (§1)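 Bliss excess equals the observed combination effect minus the expected value EA + EB − EA·EB, where EA and EB are the effects of each agent alone. Combination Emax is the second-highest inhibition within the matrix. Inhibition was scaled from CellTiter-Glo 2.0 luminescence, with 0 set by vehicle wells and 1 by blank wells, after 72 hours of two-drug dosing of cells plated in 1536-well plates.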

[2] = system: LoVo (Colorectal Carcinoma)
Procedure, shortened: as §1

NCI-H28 (Mesothelioma) = system: NCI-H28 (Mesothelioma)
Procedure, shortened: as §1

[3] = system: SW1271 (Small Cell Lung Carcinoma)
Procedure, shortened: as §1

[4] = system: SK-OV-3 (Ovarian Carcinoma)
Procedure, shortened: as §1

[5] = system: RPMI-6666 (Non-Cancerous)
Procedure, shortened: as §1

[6] = system: NCI-H69 (Small Cell Lung Carcinoma)
Procedure, shortened: as §1

[7] = system: OVCAR-8 (Ovarian Carcinoma)
Procedure, shortened: as §1

[8] = system: HO-1-u-1 (Oral Cavity Carcinoma)
Procedure, shortened: as §1

SH-4 (Melanoma) = system: SH-4 (Melanoma)
Procedure, shortened: as §1

NCI-H2461 (Mesothelioma) = system: NCI-H2461 (Mesothelioma)
Procedure, shortened: as §1

[9] = system: 639-V (Bladder Carcinoma)
Procedure, shortened: as §1

HMV-II (Melanoma) = system: HMV-II (Melanoma)
Procedure, shortened: as §1

[10] = system: PCI-30 (Head and Neck Carcinoma)
Procedure, shortened: as §1

[11] = system: EN (Endometrial Carcinoma)
Procedure, shortened: as §1

Mewo (Melanoma) = system: Mewo (Melanoma)
Procedure, shortened: as §1

[12] = system: HARA (Squamous Cell Lung Carcinoma)
Procedure, shortened: as §1

NB14 (Neuroblastoma) = system: NB14 (Neuroblastoma)
Procedure, shortened: as §1

NCI-H2795 (Mesothelioma) = system: NCI-H2795 (Mesothelioma)
Procedure, shortened: as §1

For `CC(=O)c1c(C)c2cnc(Nc3ccc(N4CCNCC4)cn3)nc2n(C2CCCC2)c1=O` [Palbociclib] + Cn1cnc2c(F)c(Nc3ccc(Br)cc3Cl)c(C(=O)NOCCO)cc21 [Selumetinib] (first compound max 10 µM, 7x7, partner max 10 µM), the Bliss excess [1] was -0.0341, the Bliss excess [2] was 0.0093 and the Bliss excess (NCI-H28 (Mesothelioma)) was -0.0508. The Bliss excess [3] was -0.0417, the Bliss excess [4] was -0.0419 and the Bliss excess [5] was -0.0324. It also gave a Bliss excess [6] of -0.0071, a Bliss excess [7] of -0.0412 and a Bliss excess [8] of 0.0772. For the same compound, the Bliss excess (SH-4 (Melanoma)) was 0.0333, the Bliss excess (NCI-H2461 (Mesothelioma)) was -0.0034 and the Bliss excess [9] was -0.0833. The Bliss excess (HMV-II (Melanoma)) was -0.0203, the Bliss excess [10] was -0.0814 and the Bliss excess [11] was -0.0205. It also gave a Bliss excess (Mewo (Melanoma)) of -0.0844, a Bliss excess [12] of 0.0219 and a Bliss excess (NB14 (Neuroblastoma)) of 0.0461. It also gave a Bliss excess (NCI-H2795 (Mesothelioma)) of -0.0173.
Compound `Cn1cnc2c(F)c(Nc3ccc(Br)cc3Cl)c(C(=O)NOCCO)cc21` [Selumetinib] + CCN(CCO)CCCOc1ccc2c(Nc3cc(CC(=O)Nc4cccc(F)c4)[nH]n3)ncnc2c1 [AZD2811] (first compound max 10 µM, 7x7, partner max 1 µM) has a Bliss excess [1] of 0.0018, a Bliss excess [2] of 0.0139 and a Bliss excess (NCI-H28 (Mesothelioma)) of -0.0745. It also gave a Bliss excess [3] of -0.0324, a Bliss excess [4] of -0.0798 and a Bliss excess [5] of 0.0696. For the same compound, the Bliss excess [6] was -0.056, the Bliss excess [7] was 0.0121 and the Bliss excess [8] was 0.0038. For the same compound, the Bliss excess (SH-4 (Melanoma)) was -0.0324, the Bliss excess (NCI-H2461 (Mesothelioma)) was -0.0026 and the Bliss excess [9] was -0.0438. The Bliss excess (HMV-II (Melanoma)) was -0.0477, the Bliss excess [10] was -0.0396 and the Bliss excess [11] was -0.0862. The Bliss excess (Mewo (Melanoma)) was 0.0389, the Bliss excess [12] was 0.0522 and the Bliss excess (NB14 (Neuroblastoma)) was -0.0491. For the same compound, the Bliss excess (NCI-H2795 (Mesothelioma)) was -0.0238.
Compound `COc1nnc2ccc(N3CCC(c4ccc(OCCN5CCN(C)C(=O)[C@H]5C)cc4)CC3)nn12` [AZD5153] + C[C@@H]1COCCN1C2=NC(=NC(=C2)C3(CC3)[S@](=N)(=O)C)C4=C5C=CNC5=NC=C4 [AZD6738] (first compound max 1 µM, 7x7, partner max 10 µM) has a Bliss excess [1] of -0.0057, a Bliss excess [2] of 0.0603 and a Bliss excess (NCI-H28 (Mesothelioma)) of 0.0141. The Bliss excess [3] was -0.0204, the Bliss excess [4] was -0.0285 and the Bliss excess [5] was -0.17. It also gave a Bliss excess [6] of 0.0358, a Bliss excess [7] of 0.0047 and a Bliss excess [8] of -0.0146. For the same compound, the Bliss excess (SH-4 (Melanoma)) was -0.0438, the Bliss excess (NCI-H2461 (Mesothelioma)) was -0.0571 and the Bliss excess [9] was 0.0933. The Bliss excess (HMV-II (Melanoma)) was 0.0169, the Bliss excess [10] was -0.014 and the Bliss excess [11] was 0.0191. The Bliss excess (Mewo (Melanoma)) was -0.007, the Bliss excess [12] was -0.0012 and the Bliss excess (NB14 (Neuroblastoma)) was -0.043. For the same compound, the Bliss excess (NCI-H2795 (Mesothelioma)) was 0.0037.
Compound `Cc1nc(Nc2ncc(C(=O)Nc3c(C)cccc3Cl)s2)cc(N2CCN(CCO)CC2)n1` [Dasatinib] + CC(=O)Nc1cccc(-n2c(=O)n(C3CC3)c(=O)c3c(Nc4ccc(I)cc4F)n(C)c(=O)c(C)c32)c1 [Trametinib] (first compound max 2 µM, 7x7, partner max 1 µM) has a Bliss excess [1] of 0.0175, a Bliss excess [2] of 0.104 and a Bliss excess (NCI-H28 (Mesothelioma)) of -0.0021. The Bliss excess [3] was 0.119, the Bliss excess [4] was -0.075 and the Bliss excess [5] was 0.0193. For the same compound, the Bliss excess [6] was -0.048, the Bliss excess [7] was 0.0396 and the Bliss excess [8] was -0.0219. For the same compound, the Bliss excess (SH-4 (Melanoma)) was -0.0721, the Bliss excess (NCI-H2461 (Mesothelioma)) was -0.0384 and the Bliss excess [9] was -0.0398. The Bliss excess (HMV-II (Melanoma)) was -0.136, the Bliss excess [10] was -0.0727 and the Bliss excess [11] was -0.0056. It also gave a Bliss excess (Mewo (Melanoma)) of 0.0254, a Bliss excess [12] of -0.0523 and a Bliss excess (NB14 (Neuroblastoma)) of -0.065. It also gave a Bliss excess (NCI-H2795 (Mesothelioma)) of -0.0513.
For `Cn1cnc2c(F)c(Nc3ccc(Br)cc3Cl)c(C(=O)NOCCO)cc21` [Selumetinib] + C=CCn1c(=O)c2cnc(Nc3ccc(N4CCN(C)CC4)cc3)nc2n1-c1cccc(C(C)(C)O)n1 [AZD1775] (first compound max 10 µM, partner max 1 µM), the Bliss excess [1] was -0.0375, the Bliss excess [2] was -0.0105 and the Bliss excess (NCI-H28 (Mesothelioma)) was -0.0376. It also gave a Bliss excess [3] of -0.0806, a Bliss excess [4] of -0.0656 and a Bliss excess [5] of 0.023. The Bliss excess [6] was -0.0312, the Bliss excess [7] was 0.0202 and the Bliss excess [8] was 0.0454. For the same compound, the Bliss excess (SH-4 (Melanoma)) was -0.0546, the Bliss excess (NCI-H2461 (Mesothelioma)) was -0.0676 and the Bliss excess [9] was -0.0207. For the same compound, the Bliss excess (HMV-II (Melanoma)) was -0.0494, the Bliss excess [10] was -0.0183 and the Bliss excess [11] was -0.126. It also gave a Bliss excess (Mewo (Melanoma)) of -0.0304, a Bliss excess [12] of -0.0406 and a Bliss excess (NB14 (Neuroblastoma)) of -0.0193. It also gave a Bliss excess (NCI-H2795 (Mesothelioma)) of -0.0298.
Work on `CC(=O)c1c(C)c2cnc(Nc3ccc(N4CCNCC4)cn3)nc2n(C2CCCC2)c1=O` [Palbociclib] + Cc1c2c(nn1C)CSCc1cc(n(C)n1)CSc1cc(c3ccccc3c1)OCCCc1c(C(=O)O)n(C)c3c-2c(Cl)ccc13 [AZD5991] (first compound max 10 µM, 7x7, partner max 1 µM) yielded a Bliss excess [1] of -0.046, a Bliss excess [2] of -0.0584 and a Bliss excess (NCI-H28 (Mesothelioma)) of -0.0319. It also gave a Bliss excess [3] of -0.0193, a Bliss excess [4] of -0.0569 and a Bliss excess [5] of -0.0533. The Bliss excess [6] was -0.0378, the Bliss excess [7] was -0.0281 and the Bliss excess [8] was -0.0069. It also gave a Bliss excess (SH-4 (Melanoma)) of -0.0267, a Bliss excess (NCI-H2461 (Mesothelioma)) of -0.056 and a Bliss excess [9] of -0.0492. For the same compound, the Bliss excess (HMV-II (Melanoma)) was -0.0185, the Bliss excess [10] was -0.0224 and the Bliss excess [11] was -0.0544. The Bliss excess (Mewo (Melanoma)) was -0.0291, the Bliss excess [12] was 0.021 and the Bliss excess (NB14 (Neuroblastoma)) was -0.0498. The Bliss excess (NCI-H2795 (Mesothelioma)) was 0.0419.
`NC1(C(=O)N[C@@H](CCO)c2ccc(Cl)cc2)CCN(c2ncnc3[nH]ccc23)CC1` [Capivasertib] + Cn1cnc2c(F)c(Nc3ccc(Br)cc3Cl)c(C(=O)NOCCO)cc21 [Selumetinib] (first compound max 10 µM, 7x7, partner max 10 µM) was tested, and the Bliss excess [1] was 0.0944, the Bliss excess [2] was -0.004 and the Bliss excess (NCI-H28 (Mesothelioma)) was -0.0231. The Bliss excess [3] was 0.0312, the Bliss excess [4] was -0.0629 and the Bliss excess [5] was 0.0604. For the same compound, the Bliss excess [6] was -0.0198, the Bliss excess [7] was 0.037 and the Bliss excess [8] was 0.126. The Bliss excess (SH-4 (Melanoma)) was -0.0106, the Bliss excess (NCI-H2461 (Mesothelioma)) was -0.0393 and the Bliss excess [9] was -0.0183. For the same compound, the Bliss excess (HMV-II (Melanoma)) was -0.005, the Bliss excess [10] was -0.0097 and the Bliss excess [11] was 0.0288. It also gave a Bliss excess (Mewo (Melanoma)) of 0.0069, a Bliss excess [12] of -0.0186 and a Bliss excess (NB14 (Neuroblastoma)) of -0.0654. It also gave a Bliss excess (NCI-H2795 (Mesothelioma)) of 0.0097.
